Measured values from PMC7324608 (Scientific Reports, 2020).
Changes are numbered by the printed parent chain.

Key:
[1] = target: T1, HpHtrA D165A (Helicobacter pylori, UniProt G2J5T2, D165A); conditions: MST
T1 sequence (G2J5T2 18-475 D165A): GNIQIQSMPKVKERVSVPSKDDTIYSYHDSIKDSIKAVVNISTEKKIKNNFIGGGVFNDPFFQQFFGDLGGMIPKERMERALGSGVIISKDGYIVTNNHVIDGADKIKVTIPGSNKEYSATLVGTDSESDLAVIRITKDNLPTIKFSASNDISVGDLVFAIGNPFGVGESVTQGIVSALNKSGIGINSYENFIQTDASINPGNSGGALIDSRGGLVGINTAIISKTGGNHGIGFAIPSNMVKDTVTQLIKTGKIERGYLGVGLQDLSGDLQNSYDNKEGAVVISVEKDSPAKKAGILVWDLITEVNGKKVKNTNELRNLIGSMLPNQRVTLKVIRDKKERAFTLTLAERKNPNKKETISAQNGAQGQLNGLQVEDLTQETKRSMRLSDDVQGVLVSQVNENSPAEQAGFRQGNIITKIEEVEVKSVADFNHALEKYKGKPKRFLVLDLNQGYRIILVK
Procedure: (§1) Synthesis of 2-Abz-AQRVAFY(3-NO2)-NH2. The peptide was assembled manually on a 20 µmol scale.
(§2) The side-chain protecting groups were Pbf for Arg, and Trt for Gln. Fmoc deprotection was carried out with 25% piperidine in DMF/NMP (80:20, v/v) for 3 min, and 12.5% piperidine in DMF/NMP (80:20, v/v) for 12 min. The double couplings (2x45 min) were accomplished with the mixture Fmoc-AA-OH/HOBt/HBTU/DIPEA (5:5:4.8:10 equiv.). 2 -Boc-Abz-OH was coupled with the same protocol.
(§3) Afterwards, the peptidyl-resin was treated with 25% piperidine in DMF/NMP (80:20, v/v) (2x12 min) to deacylate the 3-nitro-tyrosine side chain. The peptide was simultaneously cleaved from the resin and deprotected by using the mixture TFA/H2O/TIA/EDT/TIS (90:3:1:3:3; Vtot = 1 ml) for about 3 h, precipitated from ice-cold diethyl ether, recovered by centrifugation at 4 °C for 6 min, washed four times with ice-cold diethyl ether, and dried in vacuo. The solid was dissolved in water and lyophilized.
(§4) Microscale thermophoresis .
(§5) D168A, MicroScale Thermophoresis (MST) analysis was performed using the Monolith NT.115 (NanoTemper Technologies). HpHtrA proteases were labeled with red fluorescent dye NT -650-NHS (amine reactive) according to the manufacturer’s protocol. Remaining free dye was removed by buffer exchange column chromatography and proteins were eluted in 50 mM Tris pH 7.4, 150 mM NaCl, 0.04% Tween. 5 nM of labelled HpHtrA was incubated for 15 minutes at RT with decreasing […]
(§6) Measurement was performed with premium treated capillaries (NanoTemper Technologies) and the Monolith NT.115 Microscale Thermophoresis device. Data analysis was performed with MO.Affinity Analysis v2.3 (NanoTemper Technologies) and GraphPad Prism Software (Version 8.0.2). Three independent experiments were […]

[2] = target: T2, HpHtrA D168A (Helicobacter pylori, UniProt G2J5T2, D168A); conditions: MST
T2 sequence (G2J5T2 18-475 D168A): T1 sequence (G2J5T2 18-475 D165A) with A148D, D151A
Procedure: as §1, §2, §3, §4, §5, §6

[Zn+2] [Zn^++, ZnCl2] showed a Response amplitude [1] of 3.6 and a Response amplitude [2] of 2.7.
